# PMC5218480 (PLoS ONE, 2017)
# Test system: MV-4-11 cells
# Assay: Gene expression microarray analysis (Affymetrix PrimeView) and GSEA
# Assay type: cell-based, human
# Parameters: RFU PODN (11730768_x_at) / Fold change /veh PODN (11730768_x_at) / RFU LINC00158 (11744669_a_at) / Fold change /veh LINC00158 (11744669_a_at) / RFU DUSP10 (11751237_a_at) / Fold change /veh DUSP10 (11751237_a_at) / RFU ID3 (11757404_x_at) / Fold change /veh ID3 (11757404_x_at) / RFU PLEKHG5 (11737974_s_at) / Fold change /veh PLEKHG5 (11737974_s_at) / RFU LRRC4B (11730491_at) / Fold change /veh LRRC4B (11730491_at) / RFU GIMAP4 (11747438_a_at) / Fold change /veh GIMAP4 (11747438_a_at) / RFU KRT8 (11758183_x_at) / Fold change /veh KRT8 (11758183_x_at) / RFU CNN1 (11734310_a_at) / Fold change /veh CNN1 (11734310_a_at) / RFU VPS37D (11726825_at) / Fold change /veh VPS37D (11726825_at) / RFU C10orf10 (11716522_x_at) / Fold change /veh C10orf10 (11716522_x_at) / RFU KIR2DL2 /// KIR2DL4 /// KIR2DL5A /// KIR2DL5B /// KIR2DS1 /// KIR2DS2 /// KIR2DS3 /// KIR2DS4 /// KIR3DL3 /// KIR3DL3 /// KIR3DS1 (11738374_at) / Fold change /veh KIR2DL2 /// KIR2DL4 /// KIR2DL5A /// KIR2DL5B /// KIR2DS1 /// KIR2DS2 /// KIR2DS3 /// KIR2DS4 /// KIR3DL3 /// KIR3DL3 /// KIR3DS1 (11738374_at) / RFU C1QL1 (11718748_at) / Fold change /veh C1QL1 (11718748_at) / RFU TMPRSS4 (11747572_a_at) / Fold change /veh TMPRSS4 (11747572_a_at) / RFU HAMP (11756126_x_at) / Fold change /veh HAMP (11756126_x_at) / RFU RNFT2 (11725882_a_at) / Fold change /veh RNFT2 (11725882_a_at) / RFU NR4A2 (11747474_a_at) / Fold change /veh NR4A2 (11747474_a_at) / RFU ABCC12 (11746883_a_at) / Fold change /veh ABCC12 (11746883_a_at) / RFU TMEM136 (11760407_x_at) / Fold change /veh TMEM136 (11760407_x_at) / RFU CLDN22 /// WWC2 (11732394_at) / Fold change /veh CLDN22 /// WWC2 (11732394_at) / RFU HLA-DPB1 (11760878_x_at) / Fold change /veh HLA-DPB1 (11760878_x_at) / RFU SPINT1 (11716480_a_at) / Fold change /veh SPINT1 (11716480_a_at) / RFU GAP43 (11754022_s_at) / Fold change /veh GAP43 (11754022_s_at) / RFU A4GNT (11735810_at) / Fold change /veh A4GNT (11735810_at) / RFU PRB3 (11715151_x_at) / Fold change /veh PRB3 (11715151_x_at) / RFU TUBB4B (11761932_at) / Fold change /veh TUBB4B (11761932_at) / RFU CAPN14 (11732068_a_at) / Fold change /veh CAPN14 (11732068_a_at) / RFU TMCC2 (11721928_a_at) / Fold change /veh TMCC2 (11721928_a_at) / RFU IRGQ (11745062_a_at) / Fold change /veh IRGQ (11745062_a_at) / RFU FAM174B (11720279_a_at) / Fold change /veh FAM174B (11720279_a_at) / RFU TMPRSS4 (11748680_a_at) / Fold change /veh TMPRSS4 (11748680_a_at) / RFU FAM212B (11763350_a_at) / Fold change /veh FAM212B (11763350_a_at) / RFU PLEKHG5 (11743358_a_at) / Fold change /veh PLEKHG5 (11743358_a_at) / RFU ZSCAN30 (11745921_a_at) / Fold change /veh ZSCAN30 (11745921_a_at) / RFU CMKLR1 (11741424_a_at) / Fold change /veh CMKLR1 (11741424_a_at) / RFU LOC101060620 /// MAPK8IP1 (11723275_at) / Fold change /veh LOC101060620 /// MAPK8IP1 (11723275_at) / RFU SPTSSB (11747773_x_at) / Fold change /veh SPTSSB (11747773_x_at) / RFU PRSS12 (11739890_at) / Fold change /veh PRSS12 (11739890_at) / RFU BIN1 (11741810_x_at) / Fold change /veh BIN1 (11741810_x_at) / RFU WNT11 (11732464_a_at) / Fold change /veh WNT11 (11732464_a_at) / RFU C10orf10 (11716521_a_at) / Fold change /veh C10orf10 (11716521_a_at) / RFU C5orf56 (11738089_at) / Fold change /veh C5orf56 (11738089_at) / RFU CYB561 (11721691_x_at) / Fold change /veh CYB561 (11721691_x_at) / RFU ANKRD19P (11752326_a_at) / Fold change /veh ANKRD19P (11752326_a_at) / RFU OR2T12 /// OR2T33 /// OR2T8 (11738714_s_at) / Fold change /veh OR2T12 /// OR2T33 /// OR2T8 (11738714_s_at) / RFU VCAN (11748164_a_at) / Fold change /veh VCAN (11748164_a_at) / RFU JSRP1 (11732532_at) / Fold change /veh JSRP1 (11732532_at) / RFU KRTAP10-11 (11738290_x_at) / Fold change /veh KRTAP10-11 (11738290_x_at) / RFU MYO3A (11730013_a_at) / Fold change /veh MYO3A (11730013_a_at) / RFU EBF3 (11725865_a_at) / Fold change /veh EBF3 (11725865_a_at) / RFU CAMK2N1 (11719241_x_at) / Fold change /veh CAMK2N1 (11719241_x_at) / RFU C5orf56 (11738088_a_at) / Fold change /veh C5orf56 (11738088_a_at) / RFU OLFML3 (11715873_a_at) / Fold change /veh OLFML3 (11715873_a_at) / RFU LOC100653217 /// NTM (11731650_a_at) / Fold change /veh LOC100653217 /// NTM (11731650_a_at) / RFU MAPK11 (11762145_a_at) / Fold change /veh MAPK11 (11762145_a_at) / RFU FIZ1 (11724087_x_at) / Fold change /veh FIZ1 (11724087_x_at) / RFU OASL (11726364_x_at) / Fold change /veh OASL (11726364_x_at) / RFU SOX15 (11748057_x_at) / Fold change /veh SOX15 (11748057_x_at) / RFU CD79A (11719716_a_at) / Fold change /veh CD79A (11719716_a_at) / RFU HIST1H1D (11736915_at) / Fold change /veh HIST1H1D (11736915_at) / RFU CASKIN2 (11723855_a_at) / Fold change /veh CASKIN2 (11723855_a_at) / RFU LOC730098 (11760151_x_at) / Fold change /veh LOC730098 (11760151_x_at) / RFU OR4N2 (11742367_at) / Fold change /veh OR4N2 (11742367_at) / RFU PRRT2 (11749266_a_at) / Fold change /veh PRRT2 (11749266_a_at) / RFU SNX32 (11753110_a_at) / Fold change /veh SNX32 (11753110_a_at) / RFU CDHR5 (11726645_a_at) / Fold change /veh CDHR5 (11726645_a_at) / RFU RCAN1 (11760418_a_at) / Fold change /veh RCAN1 (11760418_a_at) / RFU FAM167A (11723789_a_at) / Fold change /veh FAM167A (11723789_a_at) / RFU FAM26E (11764081_at) / Fold change /veh FAM26E (11764081_at) / RFU ISYNA1 (11749810_s_at) / Fold change /veh ISYNA1 (11749810_s_at) / RFU ACY1 (11761880_at) / Fold change /veh ACY1 (11761880_at) / RFU 11764098_at / Fold change /veh 11764098_at / RFU SAMD14 (11745864_x_at) / Fold change /veh SAMD14 (11745864_x_at) / RFU NPB (11741838_a_at) / Fold change /veh NPB (11741838_a_at) / RFU TMPRSS6 (11731388_a_at) / Fold change /veh TMPRSS6 (11731388_a_at) / RFU KRTAP10-2 (11738614_at) / Fold change /veh KRTAP10-2 (11738614_at) / RFU ARHGAP8 /// PRR5-ARHGAP8 (11727945_x_at) / Fold change /veh ARHGAP8 /// PRR5-ARHGAP8 (11727945_x_at) / RFU KRTAP5-7 /// NADSYN1 (11734609_at) / Fold change /veh KRTAP5-7 /// NADSYN1 (11734609_at) / RFU RASL12 (11751679_a_at) / Fold change /veh RASL12 (11751679_a_at) / RFU CDKN2B (11736163_a_at) / Fold change /veh CDKN2B (11736163_a_at) / RFU PRF1 (11729649_at) / Fold change /veh PRF1 (11729649_at) / RFU, ZNF638 /// ZNF638-IT1 / Fold change vs veh, ZNF638 /// ZNF638-IT1 / RFU, PANK3 / Fold change vs veh, PANK3 / RFU, SH3YL1 / Fold change vs veh, SH3YL1 / RFU, ZEB2 / Fold change vs veh, ZEB2 / RFU, NRIP1 / Fold change vs veh, NRIP1 / RFU, PTTG1IP / Fold change vs veh, PTTG1IP / RFU, CAPN2 / Fold change vs veh, CAPN2 / RFU, MED14 / Fold change vs veh, MED14 / RFU, SNORA58 / Fold change vs veh, SNORA58 / RFU, C1orf63 / Fold change vs veh, C1orf63 / RFU, LRRFIP1 / Fold change vs veh, LRRFIP1 / RFU, NDUFAF7 / Fold change vs veh, NDUFAF7 / RFU, SLC12A2 / Fold change vs veh, SLC12A2 / RFU, IBTK / Fold change vs veh, IBTK / RFU, ESF1 / Fold change vs veh, ESF1 / Fold change vs veh, TMEM50B / RFU, TAOK1 / Fold change vs veh, TAOK1 / RFU, ACBD3 / Fold change vs veh, ACBD3 / RFU, TMA16 / Fold change vs veh, TMA16 / RFU, RWDD3 / Fold change vs veh, RWDD3 / RFU, BCAT1 / Fold change vs veh, BCAT1 / RFU, EDEM3 / Fold change vs veh, EDEM3 / RFU, TMEM33 / Fold change vs veh, TMEM33 / RFU, WDR75 / Fold change vs veh, WDR75 / RFU, AHCTF1 / Fold change vs veh, AHCTF1 / RFU, TFRC / Fold change vs veh, TFRC / RFU, ZDHHC17 / Fold change vs veh, ZDHHC17 / RFU, NOM1 / Fold change vs veh, NOM1 / RFU, ARL8B / Fold change vs veh, ARL8B / RFU, ZBTB11 / Fold change vs veh, ZBTB11 / RFU, TAMM41 / Fold change vs veh, TAMM41 / RFU, KIAA1704 /// LOC100996395 / Fold change vs veh, KIAA1704 /// LOC100996395 / RFU, ING1 / Fold change vs veh, ING1 / RFU, TRMT61B / Fold change vs veh, TRMT61B / RFU, FUBP3 / Fold change vs veh, FUBP3 / RFU, TP53 / Fold change vs veh, TP53 / RFU, TNKS2 / Fold change vs veh, TNKS2 / RFU, ZFP14 / Fold change vs veh, ZFP14 / RFU, ACTR2 / Fold change vs veh, ACTR2 / RFU, PPP3R1 / Fold change vs veh, PPP3R1 / RFU, PIK3R1 / Fold change vs veh, PIK3R1 / RFU, HNRNPA1 / Fold change vs veh, HNRNPA1 / RFU, RNF170 / Fold change vs veh, RNF170 / RFU, ZNF28 / Fold change vs veh, ZNF28 / RFU, RNGTT / Fold change vs veh, RNGTT / RFU, OGT / Fold change vs veh, OGT / RFU, BRD1 / Fold change vs veh, BRD1 / RFU, MARS / Fold change vs veh, MARS / RFU, ZNF655 / Fold change vs veh, ZNF655 / RFU, FAHD1 / Fold change vs veh, FAHD1 / RFU, BDP1 / Fold change vs veh, BDP1 / RFU, LRRCC1 / Fold change vs veh, LRRCC1 / RFU, ARID1A / Fold change vs veh, ARID1A / RFU, ZNF146 / Fold change vs veh, ZNF146 / RFU, ZNF330 / Fold change vs veh, ZNF330 / RFU, GPN3 / Fold change vs veh, GPN3 / RFU, C9orf123 / Fold change vs veh, C9orf123 / RFU, N4BP2L2 / Fold change vs veh, N4BP2L2 / RFU, ARFIP1 / Fold change vs veh, ARFIP1 / RFU, FAM179B / Fold change vs veh, FAM179B / RFU, BCL10 / Fold change vs veh, BCL10 / RFU, UHRF1BP1L / Fold change vs veh, UHRF1BP1L / RFU, BET1 / Fold change vs veh, BET1 / RFU, CNOT2 / Fold change vs veh, CNOT2 / RFU, ZNF268 / Fold change vs veh, ZNF268 / Fold change vs veh, ZNF507 / RFU, DGCR2 / Fold change vs veh, DGCR2 / RFU, WDSUB1 / Fold change vs veh, WDSUB1 / Fold change vs veh, HSP90B1 /// MIR3652 / RFU, ADSS / Fold change vs veh, ADSS / RFU, GK / Fold change vs veh, GK / RFU, ZNF148 / Fold change vs veh, ZNF148 / RFU, TAF9 / Fold change vs veh, TAF9 / RFU, SLC1A5 / Fold change vs veh, SLC1A5 / RFU, SLMO2 / Fold change vs veh, SLMO2 / RFU, ABCC4 / Fold change vs veh, ABCC4 / RFU, LOC101060439 /// RAP1B / Fold change vs veh, LOC101060439 /// RAP1B / RFU, RFX7 / Fold change vs veh, RFX7 / RFU, GTPBP10 / Fold change vs veh, GTPBP10 / RFU, CNEP1R1 / Fold change vs veh, CNEP1R1 / RFU, BIVM-ERCC5 /// ERCC5 / Fold change vs veh, BIVM-ERCC5 /// ERCC5 / RFU, ILF3 / Fold change vs veh, ILF3 / RFU 11762660_at / Fold change /veh 11762660_at / RFU VCAN (11757783_s_at) / Fold change /veh VCAN (11757783_s_at) / RFU DDX43 (11728927_at) / Fold change /veh DDX43 (11728927_at) / RFU KRT8 (11758188_x_at) / Fold change /veh KRT8 (11758188_x_at) / RFU NKD1 (11759106_at) / Fold change /veh NKD1 (11759106_at) / RFU SRD5A1 (11742802_a_at) / Fold change /veh SRD5A1 (11742802_a_at) / RFU TPSAB1 /// TPSB2 (11721975_s_at) / Fold change /veh TPSAB1 /// TPSB2 (11721975_s_at) / RFU GSTM3 (11746129_a_at) / Fold change /veh GSTM3 (11746129_a_at) / RFU IL23R (11737362_x_at) / Fold change /veh IL23R (11737362_x_at) / RFU TMEM51 (11727254_a_at) / Fold change /veh TMEM51 (11727254_a_at) / RFU PIWIL2 (11732686_x_at) / Fold change /veh PIWIL2 (11732686_x_at) / RFU ORM1 (11744905_x_at) / Fold change /veh ORM1 (11744905_x_at) / RFU CCDC152 (11743942_at) / Fold change /veh CCDC152 (11743942_at) / RFU ECM1 (11717891_a_at) / Fold change /veh ECM1 (11717891_a_at) / RFU IL23R (11748794_a_at) / Fold change /veh IL23R (11748794_a_at) / RFU TNFAIP8L3 (11732012_x_at) / Fold change /veh TNFAIP8L3 (11732012_x_at) / RFU MBOAT4 (11741988_at) / Fold change /veh MBOAT4 (11741988_at) / RFU 11764193_at / Fold change /veh 11764193_at / RFU TMEM53 (11763286_at) / Fold change /veh TMEM53 (11763286_at) / RFU MAGEB2 (11727129_at) / Fold change /veh MAGEB2 (11727129_at) / RFU TMEM200A (11744735_a_at) / Fold change /veh TMEM200A (11744735_a_at) / RFU CCDC152 (11751479_a_at) / Fold change /veh CCDC152 (11751479_a_at) / RFU FAM211A (11726209_a_at) / Fold change /veh FAM211A (11726209_a_at) / RFU RGS16 (11746705_a_at) / Fold change /veh RGS16 (11746705_a_at) / RFU VCAN (11755009_s_at) / Fold change /veh VCAN (11755009_s_at) / RFU RHOB (11743442_s_at) / Fold change /veh RHOB (11743442_s_at) / RFU RGS16 (11720943_a_at) / Fold change /veh RGS16 (11720943_a_at) / RFU RGS16 (11720944_at) / Fold change /veh RGS16 (11720944_at) / RFU, VPS4B / Fold change vs veh, VPS4B / RFU, CREB1 / Fold change vs veh, CREB1 / RFU, DNAJC13 / Fold change vs veh, DNAJC13 / RFU, GNAQ / Fold change vs veh, GNAQ / RFU, CDK5R1 / Fold change vs veh, CDK5R1 / RFU, ZRANB3 / Fold change vs veh, ZRANB3 / RFU, CUL4A / Fold change vs veh, CUL4A / RFU, CCNY / Fold change vs veh, CCNY / RFU, UFL1 / Fold change vs veh, UFL1 / RFU, COG3 / Fold change vs veh, COG3 / RFU, DIAPH2 / Fold change vs veh, DIAPH2 / RFU, SKA2 / Fold change vs veh, SKA2 / RFU, AFF3 / Fold change vs veh, AFF3 / RFU, LMF1 / Fold change vs veh, LMF1 / RFU, IPO11 / Fold change vs veh, IPO11 / RFU, DFFB / Fold change vs veh, DFFB / RFU, FOXP1 / Fold change vs veh, FOXP1 / RFU, CARD8 / Fold change vs veh, CARD8 / RFU, STRN3 / Fold change vs veh, STRN3 / RFU, ADK / Fold change vs veh, ADK / RFU, RASSF2 / Fold change vs veh, RASSF2 / RFU, WIPF1 / Fold change vs veh, WIPF1 / RFU, LARP1B / Fold change vs veh, LARP1B / RFU, RASA1 / Fold change vs veh, RASA1 / RFU, RB1 / Fold change vs veh, RB1 / RFU, PPFIA1 / Fold change vs veh, PPFIA1 / RFU, MAT2A / Fold change vs veh, MAT2A / RFU, CCT5 / Fold change vs veh, CCT5 / RFU, WDR92 / Fold change vs veh, WDR92 / RFU, CUX1 / Fold change vs veh, CUX1 / RFU, TTC7A / Fold change vs veh, TTC7A / RFU, TMEM135 / Fold change vs veh, TMEM135 / RFU, DEPTOR / Fold change vs veh, DEPTOR / RFU, CPM / Fold change vs veh, CPM / RFU, DNAJB6 / Fold change vs veh, DNAJB6 / RFU, CACNA2D3 / Fold change vs veh, CACNA2D3 / RFU, DTX4 / Fold change vs veh, DTX4 / RFU, TFCP2 / Fold change vs veh, TFCP2 / RFU, GMCL1 /// GMCL1P1 / Fold change vs veh, GMCL1 /// GMCL1P1 / RFU, AEBP2 / Fold change vs veh, AEBP2 / RFU, SNHG1 /// SNORD22 /// SNORD25 /// SNORD26 /// SNORD27 /// SNORD28 /// SNORD29 /// SNORD31 / Fold change vs veh, SNHG1 /// SNORD22 /// SNORD25 /// SNORD26 /// SNORD27 /// SNORD28 /// SNORD29 /// SNORD31 / Fold change (Aza/veh), C12orf56 (ProbeSet 11735607_a_at) / Fold change (ACY-1035/veh), C12orf56 (ProbeSet 11735607_a_at) / Fold change (Aza/veh), FGFR1OP (ProbeSet 11751329_s_at) / Fold change (ACY-1035/veh), FGFR1OP (ProbeSet 11751329_s_at) / Fold change (Aza/veh), VPS36 (ProbeSet 11739960_a_at) / Fold change (ACY-1035/veh), VPS36 (ProbeSet 11739960_a_at) / RFU SYPL1 (11715823_x_at) / Fold change /veh SYPL1 (11715823_x_at) / RFU IGFBP7 (11715501_s_at) / Fold change /veh IGFBP7 (11715501_s_at) / RFU REEP3 (11722064_at) / Fold change /veh REEP3 (11722064_at) / RFU IGLL1 (11728026_x_at) / Fold change /veh IGLL1 (11728026_x_at): dose or concentration left out as unconfirmed
# Settings: ProbeSet 11717523_x_at; LIST B
smiles,measurement,value
Nc1ccc(-c2cccs2)cc1NC(=O)c1ccc2c(c1)cc(C1CC1)n2CCN1CCOCC1 [ACY-1035],"Fold change vs veh, TMEM50B",0.88
